Measured values as given in US20210253718A1, “FRIZZLED5 PROTEIN-BINDING AGENTS” (Modmab Therapeutics Corporation, priority 2016, published 2021).

Tests used:
[1] = target: T1, FZD4 CRD (Homo sapiens, UniProt Q9ULV1); test: Flow cytometry of anti-FZD5 Fab binding to CHO cells overexpressing Frizzled CRD
T1 construct: E42-V167; GPI anchor signal (C); expressed in transfected cells; host or cells: CHO cells, lentiviral pLenti-puro
T1 sequence (Q9ULV1 42-167): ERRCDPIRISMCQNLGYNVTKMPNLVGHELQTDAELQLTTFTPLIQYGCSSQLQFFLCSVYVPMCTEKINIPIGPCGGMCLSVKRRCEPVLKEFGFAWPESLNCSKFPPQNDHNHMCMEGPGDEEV
Description: (§1) Plasmids: pLCKO lentiviral vector used for knockout (TKO) library construction and expression of individual gRNAs was constructed as described previously (Hart et al., 2015). Briefly, single guide RNA (sgRNA) scaffold was amplified from px330 (Addgene 42230) and cloned into pLKO.TRC005 lentiviral vector (Broad Institute, Cambridge, Mass.) using AgeI/EcoRI restriction sites. BfuAI sites were added at the 5′ end of the sgRNA scaffold for cloning the TKO library or individual gRNA target sequences. Lenti Cas9-2A-BsdR vector used to generate Cas9 stable expression cell lines was constructed as described previously (Hart et al., 2015). Briefly, lentiCRISPR pXPR_001 (Addgene 49535) was modified through removal of the sgRNA scaffold region through NdeI/EcoRI digest and blunt ends generation using Large Klenow Fragment (NEB). 2A-puro was replaced with 2A-BsdR by PCR using the NheI/MluI sites. Each of the 10 human Frizzled cysteine rich domains (CRDs) were cloned into the lentiviral expression plasmid pLenti-puro in the following cassette: FZD_CRD-MYC-GPI.
(§2) Flow cytometry: Primary staining of cells was performed by treatment with 200 nM Frizzled profiler Fab. Alexa Fluor 488 AffiniPure F(ab′)2 was used as the secondary antibody (Jackson ImmunoResearch #109-546-097). c-Myc (9E10) IgG1 (primary antibody, Santa Cruz, lot #D0306) and Alexa Fluor 488 IgG (secondary antibody, Life technologies, lot #1458649) were used as controls. Dead cells were excluded by staining with Fixable Viability Dye eFluor 660 (eBioscience, catalogue number 65-0864). All reagents were used as per manufacturer's instructions. Flow cytometry was performed on a BD FACSCanto II flow cytometer (BD Biosciences), and data were analyzed with FlowJo software (FlowJo, LLC).
(§3) To confirm that the FZD5-WNT7B circuit is not driven simply by expression and rule out the possibility of a disconnect between RNA and protein levels for the Wnt receptors in HPAF-II cells, a panel of recombinant Fabs were generated, alternatively referred to herein as ‘Frizzled profiler’, that can detect and discriminate all but one of the ten Frizzled receptors. […] To characterize the binding specificity of these Fabs on cells, a panel of 10 CHO cell lines was generated, each expressing the CRD domain of a different myc-tagged Frizzled family member anchored at the plasma membrane through a GPI anchor (CHO-myc-FZDGPI). Despite the high sequence identity between Frizzled family members (FIG. 7A, FIG. 7B), selective Fabs were identified for FZD4, FZD5, FZD6 and FZD10 as assessed by immunofluorescence and flow cytometry (FIG. 7D and FIG. 8). […] The FZD8 CRD is most homologous to that of FZD5 (FIG. 7B). These Fabs can be used to discriminate expression of FZD1, FZD2, FZD4, FZD5, FZD6, FZD7, FZD8, FZD9 and FZD10 (FIG. 7D and FIG. 8). The ‘Frizzled profiler’ therefore consists of 10 different Fabs that can be used to discriminate expression of 9 different Frizzled family members. The Frizzled profiler was then used to confirm that HPAF-II cells express FZD1, FZD5, FZD6 and possibly FZD8 (FIG. 7E).
(§4) The binding of anti-FZD5 Fabs to cell surface-expressed Frizzled protein was further determined for each member of the Frizzled family via flow cytometry and immunofluorescence analysis of a panel of 10 CHO cell lines, each ectopically over-expressing the extracellular cysteine-rich domain (CRD) of a different Frizzled protein family member.

[2] = target: T2, FZD1 CRD (Homo sapiens, UniProt Q9UP38); test: as above
T2 construct: D112-P238; GPI anchor signal (C); expressed in transfected cells; host or cells: CHO cells, lentiviral pLenti-puro
Description: as §1, §2, §3, §4

[3] = tested on: HPAFII cells; test: Effect of anti-FZD5 Fabs on proliferation of pancreatic cancer cell lines (percent growth inhibition); format: cell-based, human
Description: (§5) The effect of presently disclosed anti-FZD5 Fabs on proliferation of RNF43 loss-of-function mutant pancreatic cancer cell lines HPAFII, PATU8988S and ASPC-1; and on pancreatic cancer cell line RWP1, was tested at […] and 10 μg/ml.

[4] = tested on: PATU8988S cells; test: as above; format: cell-based, human; settings: Fab 10 μg/ml
Description: as §5

[5] = tested on: ASPC-1 cells; test: as above; format: cell-based, human; settings: Fab 10 μg/ml
Description: as §5

[6] = tested on: RWP1 cells; test: as above; format: cell-based, human; settings: Fab 10 μg/ml
Description: as §5

[7] = tested on: ASPC-1 cells; test: as above; format: cell-based, human; settings: Fab 2 μg/ml
[8] = tested on: RWP1 cells; test: as above; format: cell-based, human; settings: Fab 2 μg/ml
[9] = tested on: CHO cells not expressing Frizzled CRD; test: Flow cytometry of anti-FZD5 Fab binding to CHO cells not expressing Frizzled CRD (background)
Source text: as §4

[10] = target: T3, FZD5 CRD (Homo sapiens, UniProt Q13467); test: Immunofluorescence of anti-FZD5 Fab binding to CHO cells overexpressing Frizzled CRD; design: key: −: no binding; +: very weak binder; ++: weak binder; +++: good binder; ++++: very good binder
T3 construct: K29-T156; GPI anchor signal (C); expressed in transfected cells; host or cells: CHO cells, lentiviral pLenti-puro
T3 sequence (Q13467 29-156): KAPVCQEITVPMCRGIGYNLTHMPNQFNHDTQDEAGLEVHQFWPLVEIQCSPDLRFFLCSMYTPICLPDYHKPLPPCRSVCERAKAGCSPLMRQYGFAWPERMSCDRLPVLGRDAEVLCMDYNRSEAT
Description: as §1, §3, §4

[11] = target: T2, FZD1 CRD; test: as above; design: key: −: no binding; +: very weak binder; ++: weak binder; +++: good binder; ++++: very good binder
Description: as §1, §3, §4

[12] = target: T4, FZD8 CRD (Homo sapiens, UniProt Q9H461); test: as above; design: key: −: no binding; +: very weak binder; ++: weak binder; +++: good binder; ++++: very good binder
T4 construct: K31-D155; GPI anchor signal (C); expressed in transfected cells; host or cells: CHO cells, lentiviral pLenti-puro
T4 sequence (Q9H461 31-155): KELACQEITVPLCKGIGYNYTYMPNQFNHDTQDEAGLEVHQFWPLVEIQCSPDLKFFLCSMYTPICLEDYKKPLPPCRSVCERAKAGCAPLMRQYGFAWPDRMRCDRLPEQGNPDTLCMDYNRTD
Description: as §1, §3, §4

- Median fluorescence, Frizzled CRD overexpressed on CHO cells: FZD4 [1]: 3.65
- Median fluorescence, Frizzled CRD overexpressed on CHO cells: FZD1 [2]: 10.27
- Immunofluorescence binding, Frizzled CRD overexpressed on CHO cells: FZD5 [10]: ++++
- Immunofluorescence binding, Frizzled CRD overexpressed on CHO cells: FZD1 [11]: −
- Immunofluorescence binding, Frizzled CRD overexpressed on CHO cells: FZD8 [12]: −
Substance: Fab-2931: anti-FZD5 Fab with antibody variable region Fv-2931; CDR SEQ ID NOs: 35, 36, 70, 102, 146, 176 (CDR 1 QSVSSA; CDR 2 SAS; CDR 3 QQSSYSLIT; CDR 4 GFNLSYSS; CDR 5 ISPYSGST; CDR 6 ARGSYWYVGGGWWVSGHGGMDY)
- percent growth inhibition, HPAFII 2 μg/ml ([3]; Fab 2 μg/ml): −19.38%
- percent growth inhibition, HPAFII 10 μg/ml ([3]; Fab 10 μg/ml): 11.37%
- percent growth inhibition, PATU8988s 10 μg/ml [4]: −17.27%
- percent growth inhibition, ASPC-1 10 μg/ml [5]: 39.20%
- percent growth inhibition, RWP1 10 μg/ml [6]: 18.70%
- percent growth inhibition, ASPC-1 2 μg/ml [7]: 10.33%
- percent growth inhibition, RWP1 2 μg/ml [8]: 15.35%
- Median fluorescence, Frizzled CRD overexpressed on CHO cells: None [9]: 3.11
